Reference: ChEMBL document CHEMBL4308841, “Synthesis, in vitro antiproliferative activity, and kinase inhibitory effects of pyrazole-containing diarylureas and diarylamides” (Eur J Med Chem, 2018)

What was measured:
A549 [1] = assay: Growth inhibition of human A549/ATCC cells assessed as cell growth at 0.01 uM incubated for 48 hrs by sulforhodamine B assay relative to control; type: functional; details: A549, 48 h, read-out: Activity
LOX IMVI = assay: Growth inhibition of human LOXIMVI cells assessed as cell growth at 0.01 uM incubated for 48 hrs by sulforhodamine B assay relative to control; type: functional; details: read-out: Activity
MDA-MB-468 = assay: Growth inhibition of human MDA-MB-468 cells assessed as cell growth at 0.1 uM incubated for 48 hrs by sulforhodamine B assay relative to control; type: functional; details: MDA-MB-468, 48 h, read-out: Activity
BT-549 = assay: Growth inhibition of human BT549 cells incubated for 48 hrs by sulforhodamine B assay; type: functional, cell-based; details: BT-549, 48 h
HT-29 = assay: Growth inhibition of human HT-29 cells assessed as cell growth at 0.01 uM incubated for 48 hrs by sulforhodamine B assay relative to control; type: functional; details: HT-29, 48 h, read-out: Activity
PC-3 [2] = assay: Growth inhibition of human PC3 cells assessed as cell growth at 0.1 uM incubated for 48 hrs by sulforhodamine B assay relative to control; type: functional; details: PC-3, 48 h, read-out: Activity
SR [3] = assay: Growth inhibition of human SR cells assessed as cell growth at 1 uM incubated for 48 hrs by sulforhodamine B assay relative to control; type: functional; details: read-out: Activity
PC-3 [4] = assay: Growth inhibition of human PC3 cells assessed as cell growth at 0.01 uM incubated for 48 hrs by sulforhodamine B assay relative to control; type: functional; details: PC-3, 48 h, read-out: Activity
UACC-257 = assay: Growth inhibition of human UACC257 cells assessed as cell growth at 1 uM incubated for 48 hrs by sulforhodamine B assay relative to control; type: functional; details: UACC-257, 48 h, read-out: Activity
OVCAR-5 = assay: Growth inhibition of human OVCAR5 cells incubated for 48 hrs by sulforhodamine B assay; type: functional, cell-based; details: OVCAR-5, 48 h
NCI-H322M = assay: Growth inhibition of human NCI-H322M cells assessed as cell growth at 1 uM incubated for 48 hrs by sulforhodamine B assay relative to control; type: functional; details: read-out: Activity
HL-60(TB) = assay: Growth inhibition of human HL-60(TB) cells assessed as cell growth at 0.01 uM incubated for 48 hrs by sulforhodamine B assay relative to control; type: functional; details: HL-60, 48 h, read-out: Activity
HCC 2998 = assay: Growth inhibition of human HCC2998 cells incubated for 48 hrs by sulforhodamine B assay; type: functional, cell-based; details: HCC 2998, 48 h
SK-MEL-28 = assay: Growth inhibition of human SK-MEL-28 cells assessed as cell growth at 100 uM incubated for 48 hrs by sulforhodamine B assay relative to control; type: functional; details: SK-MEL-28, 48 h, read-out: Activity
NCI-H23 = assay: Growth inhibition of human NCI-H23 cells incubated for 48 hrs by sulforhodamine B assay; type: functional, cell-based; details: NCI-H23, 48 h
SR [5] = assay: Growth inhibition of human SR cells assessed as cell growth at 0.01 uM incubated for 48 hrs by sulforhodamine B assay relative to control; type: functional; details: read-out: Activity
MDA-MB-435 = assay: Growth inhibition of human MDA-MB-435 cells assessed as cell growth at 100 uM incubated for 48 hrs by sulforhodamine B assay relative to control; type: functional; details: MDA-MB-435, 48 h, read-out: Activity
U-251 = assay: Growth inhibition of human U251 cells assessed as cell growth at 0.1 uM incubated for 48 hrs by sulforhodamine B assay relative to control; type: functional; details: U-251, 48 h, read-out: Activity
SK-MEL-5 [6] = assay: Growth inhibition of human SK-MEL-5 cells assessed as cell growth at 0.1 uM incubated for 48 hrs by sulforhodamine B assay relative to control; type: functional; details: SK-MEL-5, 48 h, read-out: Activity
UACC-62 = assay: Growth inhibition of human UACC62 cells incubated for 48 hrs by sulforhodamine B assay; type: functional, cell-based; details: UACC-62, 48 h
SN12C = assay: Growth inhibition of human SN12C cells assessed as cell growth at 0.01 uM incubated for 48 hrs by sulforhodamine B assay relative to control; type: functional; details: read-out: Activity
SK-MEL-2 [7] = assay: Growth inhibition of human SK-MEL-2 cells assessed as cell growth at 0.1 uM incubated for 48 hrs by sulforhodamine B assay relative to control; type: functional; details: SK-MEL-2, 48 h, read-out: Activity
IGROV-1 = assay: Growth inhibition of human IGROV1 cells assessed as cell growth at 1 uM incubated for 48 hrs by sulforhodamine B assay relative to control; type: functional; details: IGROV-1, 48 h, read-out: Activity
NCI-H522 = assay: Growth inhibition of human NCI-H522 cells assessed as cell growth at 1 uM incubated for 48 hrs by sulforhodamine B assay relative to control; type: functional; details: NCI-H522, 48 h, read-out: Activity
786-0 = assay: Growth inhibition of human 786-0 cells assessed as cell growth at 100 uM incubated for 48 hrs by sulforhodamine B assay relative to control; type: functional; details: 786-0, 48 h, read-out: Activity
SK-MEL-5 [8] = assay: Growth inhibition of human SK-MEL-5 cells assessed as cell growth at 0.01 uM incubated for 48 hrs by sulforhodamine B assay relative to control; type: functional; details: SK-MEL-5, 48 h, read-out: Activity
MCF7 = assay: Growth inhibition of human MCF7 cells assessed as cell growth at 100 uM incubated for 48 hrs by sulforhodamine B assay relative to control; type: functional; details: MCF7, 48 h, read-out: Activity
HOP-62 = assay: Growth inhibition of human HOP62 cells assessed as cell growth at 100 uM incubated for 48 hrs by sulforhodamine B assay relative to control; type: functional; details: HOP-62, 48 h, read-out: Activity
PC-3 [9] = assay: Growth inhibition of human PC3 cells assessed as cell growth at 1 uM incubated for 48 hrs by sulforhodamine B assay relative to control; type: functional; details: PC-3, 48 h, read-out: Activity
SK-MEL-2 [10] = assay: Growth inhibition of human SK-MEL-2 cells assessed as cell growth at 100 uM incubated for 48 hrs by sulforhodamine B assay relative to control; type: functional; details: SK-MEL-2, 48 h, read-out: Activity
A549 [11] = assay: Growth inhibition of human A549/ATCC cells assessed as cell growth at 1 uM incubated for 48 hrs by sulforhodamine B assay relative to control; type: functional; details: A549, 48 h, read-out: Activity
[12] = read-out: LC50 (the source's name)
[13] = read-out: pLC50 (the source's name) (converted)

O=C(Nc1cccc(-n2cc(-c3ccncc3)c(-c3cc(O)cc(Cl)c3)n2)c1)Nc1ccc(Cl)c(C(F)(F)F)c1
growth at 0.01 µM (A549 [1]): 101%
growth at 0.01 µM (LOX IMVI): 90%
growth at 0.1 µM (MDA-MB-468): 94%
GI50 (BT-549; read-out: GI50): 2.25 µM
CC50 (BT-549; [12]): 23.7 µM
TGI (BT-549; read-out: TGI): 51.5 µM
GI50 (BT-549; read-out: pGI50 (converted)): 2.82 µM
CC50 (BT-549; [13]): 23.4 µM
TGI (BT-549; read-out: pTGI (converted)): 6.17 µM
growth at 0.01 µM (HT-29): 98%
growth at 0.1 µM (PC-3 [2]): 98%
growth at 1 µM (SR [3]): 57%
growth at 0.01 µM (PC-3 [4]): 95%
growth at 1 µM (UACC-257): 58%
GI50 (OVCAR-5; read-out: GI50): 3.79 µM
CC50 (OVCAR-5; [12]): 54.1 µM
TGI (OVCAR-5; read-out: TGI): 13.1 µM
GI50 (OVCAR-5; read-out: pGI50 (converted)): 3.8 µM
CC50 (OVCAR-5; [13]): 83.2 µM
TGI (OVCAR-5; read-out: pTGI (converted)): 13.2 µM
growth at 1 µM (NCI-H322M): 93%
growth at 0.01 µM (HL-60(TB)): 95%
GI50 (HCC 2998; read-out: GI50): 3.93 µM
CC50 (HCC 2998; [12]): 43 µM
TGI (HCC 2998; read-out: TGI): 13.4 µM
GI50 (HCC 2998; read-out: pGI50 (converted)): 3.89 µM
CC50 (HCC 2998; [13]): 42.7 µM
TGI (HCC 2998; read-out: pTGI (converted)): 13.5 µM
growth at 100 µM (SK-MEL-28): -89%
GI50 (NCI-H23; read-out: GI50): 2.58 µM
LC50 (NCI-H23; read-out: LC50): 45.1 µM
TGI (NCI-H23; read-out: TGI): 74 µM
GI50 (NCI-H23; read-out: pGI50 (converted)): 2.57 µM
LC50 (NCI-H23; read-out: pLC50 (converted)): 45.7 µM
TGI (NCI-H23; read-out: pTGI (converted)): 7.41 µM
growth at 0.01 µM (SR [5]): 105%
growth at 100 µM (MDA-MB-435): -93%
growth at 0.1 µM (U-251): 91%
growth at 0.1 µM (SK-MEL-5 [6]): 98%
IC50 (UACC-62): 2.08 µM
GI50 (UACC-62; read-out: GI50): 2 µM
CC50 (UACC-62; [12]): 91.9 µM
TGI (UACC-62; read-out: TGI): 43.8 µM
GI50 (UACC-62; read-out: pGI50 (converted)): 2.09 µM
CC50 (UACC-62; [13]): 9.12 µM
TGI (UACC-62; read-out: pTGI (converted)): 4.37 µM
growth at 0.01 µM (SN12C): 102%
growth at 0.1 µM (SK-MEL-2 [7]): 94%
growth at 1 µM (IGROV-1): 113%
growth at 1 µM (NCI-H522): 51%
growth at 100 µM (786-0): -50%
growth at 0.01 µM (SK-MEL-5 [8]): 97%
growth at 100 µM (MCF7): -43%
growth at 100 µM (HOP-62): -12%
growth at 1 µM (PC-3 [9]): 83%
growth at 100 µM (SK-MEL-2 [10]): -88%
growth at 1 µM (A549 [11]): 81%

COc1cc(Cl)cc(-c2nn(-c3cccc(NC(=O)c4cccc(C(F)(F)F)c4)c3)cc2-c2ccncc2)c1
growth at 0.01 µM (A549 [1]): 98%
growth at 0.01 µM (LOX IMVI): 100%
growth at 0.1 µM (MDA-MB-468): 85%
GI50 (BT-549; read-out: GI50): > 100 µM
CC50 (BT-549; [12]): > 100 µM
TGI (BT-549; read-out: TGI): > 100 µM
GI50 (BT-549; read-out: pGI50 (converted)): > 100 µM
CC50 (BT-549; [13]): > 100 µM
TGI (BT-549; read-out: pTGI (converted)): > 100 µM
growth at 0.01 µM (HT-29): 90%
growth at 0.1 µM (PC-3 [2]): 52%
growth at 1 µM (SR [3]): 58%
growth at 0.01 µM (PC-3 [4]): 94%
growth at 1 µM (UACC-257): 92%
GI50 (OVCAR-5; read-out: GI50): > 100 µM
CC50 (OVCAR-5; [12]): > 100 µM
TGI (OVCAR-5; read-out: TGI): > 100 µM
GI50 (OVCAR-5; read-out: pGI50 (converted)): > 100 µM
CC50 (OVCAR-5; [13]): > 100 µM
TGI (OVCAR-5; read-out: pTGI (converted)): > 100 µM
growth at 1 µM (NCI-H322M): 90%
growth at 0.01 µM (HL-60(TB)): 59%
GI50 (HCC 2998; read-out: GI50): 5.56 µM
CC50 (HCC 2998; [12]): > 100 µM
TGI (HCC 2998; read-out: TGI): > 100 µM
GI50 (HCC 2998; read-out: pGI50 (converted)): 6.61 µM
CC50 (HCC 2998; [13]): > 100 µM
TGI (HCC 2998; read-out: pTGI (converted)): > 100 µM
growth at 100 µM (SK-MEL-28): 75%
GI50 (NCI-H23; read-out: GI50): 5.74 µM
LC50 (NCI-H23; read-out: LC50): > 100 µM
TGI (NCI-H23; read-out: TGI): > 100 µM
GI50 (NCI-H23; read-out: pGI50 (converted)): 6.76 µM
LC50 (NCI-H23; read-out: pLC50 (converted)): > 100 µM
TGI (NCI-H23; read-out: pTGI (converted)): > 100 µM
growth at 0.01 µM (SR [5]): 57%
growth at 100 µM (MDA-MB-435): 52%
growth at 0.1 µM (U-251): 91%
growth at 0.1 µM (SK-MEL-5 [6]): 95%
IC50 (UACC-62): 8.04 µM
GI50 (UACC-62; read-out: GI50): 0.04 µM
CC50 (UACC-62; [12]): > 100 µM
TGI (UACC-62; read-out: TGI): > 100 µM
GI50 (UACC-62; read-out: pGI50 (converted)): 8.13 µM
CC50 (UACC-62; [13]): > 100 µM
TGI (UACC-62; read-out: pTGI (converted)): > 100 µM
growth at 0.01 µM (SN12C): 99%
growth at 0.1 µM (SK-MEL-2 [7]): 95%
growth at 1 µM (IGROV-1): 94%
growth at 1 µM (NCI-H522): 54%
growth at 100 µM (786-0): 44%
growth at 0.01 µM (SK-MEL-5 [8]): 97%
growth at 100 µM (MCF7): 38%
growth at 100 µM (HOP-62): 83%
growth at 1 µM (PC-3 [9]): 73%
growth at 100 µM (SK-MEL-2 [10]): 47%
growth at 1 µM (A549 [11]): 75%
